Series [1] can be described thus: in vitro. The conditions noted are these: PAMPA. Background: In PAMPA a lipid-coated filter parts donor from acceptor wells.
The target of series [2] is mpox resolvase (Mpr) (Monkeypox virus, UniProt A0A7H0DNC1). The experiment in a line: biochemical. Type of series: biochemical.
Series [3] can be described thus: in vitro. The conditions noted are these: human, microsomes, pH 7.4.
Series [4] can be described thus: in vitro. The conditions noted are these: human.
Series [5] is described as follows: physchem. The conditions noted are these: pH 7.2, aqueous buffer, kinetic from dmso stock.
Series [6] is described as follows: in vitro. As to conditions: human, plasma, pH 7.4.
For series [7], the system named is VACV-Gluc reporter virus. As to the kind of experiment: microbe, parasite or virus in culture. Format: cell-based, vaccinia virus. The conditions noted are these: for EC50: Orthopoxvirus vaccinia, HFF, 24 h, read-out: VACV EC50.
For series [8] the following is noted: pH 7.2.
The conditions of series [9]: microsomes.
Series [10] relates to fowlpox virus resolvase (Fpr). As to conditions: read-out: Fpr IC50; cited from earlier work.

Structures are written as SMILES. ≈ marks a conversion by molar mass, not a printed value. Like-named read-outs stand apart in the source and are kept apart here.

mpox resolvase (Mpr), sequence (A0A7H0DNC1 whole entry, looked up): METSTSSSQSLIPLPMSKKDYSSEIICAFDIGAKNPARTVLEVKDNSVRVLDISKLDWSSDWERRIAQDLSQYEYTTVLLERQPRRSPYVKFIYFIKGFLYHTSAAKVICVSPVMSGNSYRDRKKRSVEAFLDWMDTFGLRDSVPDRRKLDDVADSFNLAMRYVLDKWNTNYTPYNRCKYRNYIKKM

`O=c1c(-c2ccccc2)c(O)c2cc(-c3ccc(Oc4ccccc4)cc3)cnc2n1O` [4a-3, 1,4-dihydroxy-6-(4-phenoxyphenyl)-3-phenyl-1,8-naphthyridin-2(1H)-one]: in series [1], the Papp amounted to 8.6 ± 0.8 ×10⁻⁶ cm/s. Moreover, in series [2], 120 ± 10 nM corresponded to half-maximal inhibition (IC50). Also, the half-life in series [3] was 0.715 ± 0.0117 h; in series [6], greater than 24 h. In series [4], the CC50 is greater than 250000 nM. This compound also showed a solubility in series [5] of 86 ± 5 µM (≈ 36.3 µg/mL). Moreover, the “SI (selectivity index, CC50 / EC50)” value in series [7] is given as >1.9 × 10^2. In addition, the half-maximal effective concentration (EC50) in series [7] is 1300 ± 400 nM.
On to `O=c1c(-c2ccccc2)c(O)c2cc(-c3ccccc3)cnc2n1O` [4a-5, 1,4-dihydroxy-3,6-diphenyl-1,8-naphthyridin-2(1H)-one], for which 900 ± 200 nM corresponded to half-maximal inhibition in series [2] (IC50). Also, in [4], the CC50 was greater than 250000 nM. In series [7], the “SI (selectivity index, CC50 / EC50)” value is on record as >1.0 × 10^2 and the EC50 was 2400 ± 300 nM.
In turn, `COc1ccc(-c2cnc3c(c2)c(O)c(-c2ccccc2)c(=O)n3O)cc1F` [4a-10, 6-(3-fluoro-4-methoxyphenyl)-1,4-dihydroxy-3-phenyl-1,8-naphthyridin-2(1H)-one] registered an IC50 in [2] of 1600 ± 200 nM. Also, in series [4], the CC50 is greater than 250000 nM. Besides, in series [7], the “SI (selectivity index, CC50 / EC50)” value is greater than 26 and the EC50 is 9700 ± 300 nM.
As to `CCc1c(O)c2cc(-c3ccc(-c4ccccc4)cc3)cnc2n(O)c1=O` [4b-2, 6-([1,1’-biphenyl]-4-yl)-3-ethyl-1,4-dihydroxy-1,8-naphthyridin-2(1H)-one], the apparent permeability (Papp) in series [1] turned out to be 3.8 ± 0.1 ×10⁻⁶ cm/s. Also, in [2], the IC50 was found to be 360 ± 20 nM. Further, in [3], the half-life was greater than 2 h. Further, in [4], the CC50 is greater than 250000 nM. In addition, the solubility in [5] turned out to be 1.4 ± 0.1 µM (≈ 0.502 µg/mL). Moreover, the half-life in series [6] was greater than 24 h. In series [7], the “SI (selectivity index, CC50 / EC50)” value is recorded as >6.4 × 10^2 and the EC50 was 390 ± 10 nM.
Take `CCc1c(O)c2cc(-c3ccc(Oc4ccccc4)cc3)cnc2n(O)c1=O` [4b-3, 3-ethyl-1,4-dihydroxy-6-(4-phenoxyphenyl)-1,8-naphthyridin-2(1H)-one]: the Papp in series [1] was determined as 5.2 ± 0.6 ×10⁻⁶ cm/s. In addition, the IC50 in series [2] was found to be 320 ± 60 nM. Moreover, the half-life is 0.587 ± 0.0133 h in series [3] and greater than 24 h in [6]. This compound displayed a CC50 in series [4] greater than 250000 nM. The solubility in [5] was 47 ± 4 µM (≈ 17.6 µg/mL). The “SI (selectivity index, CC50 / EC50)” value in [7] is listed as >1.5 × 10^2. The EC50 in series [7] turned out to be 1600 ± 100 nM.
For `NC(=O)c1cccc(-c2cnc3c(c2)c(O)cc(=O)n3O)c1` [4c-12, 3-(5,8-dihydroxy-7-oxo-7,8-dihydro-1,8-naphthyridin-3-yl) benzamide], the IC50 in [2] (read-out: Mpr IC50) stood at 15000 ± 2000 nM.
As for `Cc1ccc(-c2cnc3c(c2)c(O)cc(=O)n3O)cc1F` [4c-13, 6-(3-fluoro-4-methylphenyl)-1,4-dihydroxy-1,8-naphthyridin-2(1H)-one], the “fluorescence quenching in the FRET assay” value in series [2] is on record as “direct quenching of fluorophore”.
`O=c1cc(O)c2cc(Br)cnc2n1O` [4c-14, 6-bromo-1,4-dihydroxy-1,8-naphthyridin-2(1H)-one]: in series [2], half-maximal inhibition (IC50) was put at 9000 ± 1000 nM.
`O=c1c(-c2ccccc2)c(O)c2c(-c3cccc(-c4ccccc4)c3)ccnc2n1O` [5-1, 5-([1,1’-biphenyl]-3-yl)-1,4-dihydroxy-3-phenyl-1,8-naphthyridin-2(1H)-one] yielded an apparent permeability (Papp) in [1] of 9 ± 1 ×10⁻⁶ cm/s. Further, in series [2], half-maximal inhibition (IC50) was put at 36 ± 1 nM and the “fold improvement in Mpr inhibition over C-6 regioisomer (compound 3 for 5-1)” value is 10 fold. The half-life in [3] is greater than 2 h. For the same compound, in [8], the “solubility” value was “acceptable solubility”. Besides, the “human microsomal stability” value in [9] is given as “excellent human microsomal stability”. The same compound registered a CC50 in series [4] of 150000 nM. The concentration in solution in [5] (solubility) was 130 ± 4 µM (≈ 52.8 µg/mL). In series [6], the half-life was greater than 24 h. In addition, in series [7], the “SI (selectivity index, CC50 / EC50)” value is 4.7 × 10^4; the “fold better antiviral potency than brincidofovir” value is 2 fold; the “fold improvement in antiviral potency against VACV over compound 3” value came out at 400 fold; the EC50 is 3.2 ± 0.7 nM.
On to `O=c1cc(O)c2c(-c3cccc(-c4ccccc4)c3)ccnc2n1O` [5-3, 5-([1,1’-biphenyl]-3-yl)-1,4-dihydroxy-1,8-naphthyridin-2(1H)-one], for which, in series [2], inhibition was half-maximal at 15 ± 1 nM (IC50) and the “fold improvement in Mpr inhibition over C-6 regioisomer (compound 3 for 5-1)” value was 10 fold. This compound showed a CC50 in series [4] greater than 250000 nM. Further, in [7], the EC50 is 6000 ± 1000 nM.
In the case of `CSc1ccc(-c2ccnc3c2c(O)cc(=O)n3O)cc1` [5-4, 1,4-dihydroxy-5-(4-(methylthio)phenyl)-1,8-naphthyridin-2(1H)-one], in [2], the IC50 was determined as 120 ± 10 nM.
With `O=c1c(-c2ccccc2)cc2cc(-c3cccc(-c4ccccc4)c3)cnc2n1O` [6-1, 6-([1,1’-biphenyl]-3-yl)-1-hydroxy-3-phenyl-1,8-naphthyridin-2(1H)-one], the concentration for half-maximal inhibition (IC50) in series [2] was greater than 50000 nM.
`CSc1cccc(-c2cnc3c(c2)cc(-c2ccccc2)c(=O)n3O)c1` [6-2, 1-hydroxy-6-(3-(methylthio)phenyl)-3-phenyl-1,8-naphthyridin-2(1H)-one] yielded an IC50 in [2] greater than 50000 nM.
In [4], `CCCCCCCCCCCCCCCCOCCCOP(=O)(O)CO[C@H](CO)Cn1ccc(N)nc1=O` [Brincidofovir, brincidofovir, reference compound] returned a CC50 greater than 250000 nM. Further, in series [7], the “SI (selectivity index, CC50 / EC50)” value is >3 × 10^4 and the concentration giving a half-maximal response (EC50) is 7 ± 4 nM.
Consider `O=c1c(-c2ccccc2)c(O)c2cc(-c3cccc(-c4ccccc4)c3)cnc2n1O` [compound 3, 6-([1,1’-biphenyl]-3-yl)-1,4-dihydroxy-3-phenyl-1,8-naphthyridin-2(1H)-one], for which the Papp in series [1] stood at 6 ± 2 ×10⁻⁶ cm/s. The values for the IC50 in series [2] and in [10] were 340 ± 60 nM and 300 nM, respectively. Besides, the half-life in series [3] was greater than 2 h; in [6], greater than 24 h. Besides, the entries for the “solubility” value in series [8] and in series [5] were “acceptable solubility” and 130 ± 8 µM (≈ 52.8 µg/mL), respectively. For the same compound, the “human microsomal stability” value in series [9] is given as “excellent human microsomal stability”. In series [4], this compound registered a CC50 greater than 250000 nM. Besides, in series [7], the “SI (selectivity index, CC50 / EC50)” value is >1.9 × 10^2. In addition, in [7], the concentration giving a half-maximal response (EC50) is 1300 ± 300 nM.

A word on the Papp: it is the rate of passage across a membrane or cell layer, normalised by area and donor concentration. Low readings indicate poor permeation, high ones ready permeation. As a reminder, the IC50 is the concentration that gives 50% inhibition. For orientation: half-life means how long it takes for the measured level to halve. A lower half-life goes with fast loss. By solubility is commonly meant the dissolved amount per volume that the medium holds. A high value points to much dissolved substance. As usually defined, the EC50 is the concentration giving half of the maximal effect.

The values above are taken from paper PMC12796986 (Journal of medicinal chemistry, 2025).
